Structures can show the parent of a compound that is named as a salt. Where two headings read alike, the source gives them in different places.
Tests used:
[1] = system: 2-phenyl-1,4-benzoquinone-induced writhing; assay: Inhibition of Phenylquinone-Induced Writhing in Mice (PQW); format: in vivo, male CD-1 Charles River mice
Protocol: A 0.125% concentration of phenyl-p-benzoquinone in a 5% aqueous solution of ethyl alcohol is administered to mice (10 mL/kg, ip). This produces a characteristic "writhe" which is defined as an inward rotation of one or more feet with twisting and turning of the trunk, drawing in of the abdominal wall, lordosis, and arching of the back. A total of 28 male CD-1 Charles River mice (18-30 g) are employed for a time-response. Animals receive food and water ad libitum during their stay in the animal quarters prior to testing. Compounds are tested at 20 mg/kg, sc and are prepared with distilled water, and if insoluble one drop of Tween-80, a surfactant is added. Compounds are administered in a dosage volume of 10 mL/kg.
Twenty mice (five per group) are administered the test compound at various pretreat time (e.g., 15,30,45, and 60 min) prior to phenylquinone injection. Control animals (two per group) receive an equal volume of vehicle. After the administration of phenylquinone, the mice are placed separately into 1-L beakers, and 5 min are allowed to elapse. The mice are then observed for a period of 10 min, and the number of writhes is recorded for each animal. The formula for computing percent inhibition is [drawing 20]
The time period with the maximum percent of inhibition is considered the peak time.

[2] = system: Scopolamine Induced Memory Deficit; assay: Dark Avoidance Assay (reversal of scopolamine-induced memory deficit); format: in vivo, mice; conditions: for responders at 0.3 mg/kg: Dose 0.30 mg/kg of body weight; for responders at 0.16 mg/kg: Dose 0.16 mg/kg of body weight
Protocol: In this assay mice are tested for their ability to remember an unpleasant stimulus for a period of 24 hours. A mouse is placed in a chamber that contains a dark compartment: a strong incandescent light drives it to the dark compartment, where an electric shock is administered through metal plates on the floor. The animal is removed from the testing apparatus and tested again, 24 hours later, for the ability to remember the electric shock. If scopolamine, an anticholinergic that is known to cause memory impairment, is administered before an animal's initial exposure to the test chamber, the animal re-enters the dark compartment shortly after being placed in the test chamber 24 hours later. This effect of scopolamine is blocked by an active test compound, resulting in a greater interval before re-entry into the dark compartment. The results for an active compound are expressed as the percent of a group of animals in which the effect of scopolamine is blocked, as manifested by an increased interval between being placed in the test chamber and re-entering the dark compartment.

[3] = target: T1, porcine pancreatic PLA₂ (Sus scrofa, UniProt P00592); assay: In Vitro Phospholipase A₂ Assay (PLA₂); format: biochemical
T1 construct: porcine pancreatic PLA₂ (3.2 units); from tissue; host or cells: porcine pancreas
T1 sequence (P00592 23-146): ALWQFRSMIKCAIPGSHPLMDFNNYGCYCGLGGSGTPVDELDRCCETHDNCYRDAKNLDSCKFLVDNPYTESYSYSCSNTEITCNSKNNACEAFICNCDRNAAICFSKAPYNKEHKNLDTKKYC
Protocol: The ability of a compound to modulate PLA₂ activity (cleavage of ¹⁴C-dipalmitoyl phosphotidylcholine at the 2-position to ¹⁴C-palmitic acid) was quantitated in this assay. The reaction mixture contained Tris buffer (25mM), pH 8.0, calcium chloride (2.0 mM), bovine serum albumin (0.5 mg), dipalmitoyl phosphotidylcholine (8x10⁻⁵M), (¹⁴C-palmitoyl)dipalmitoyl phosphotidylcholine (6x10³ cpm), porcine pancreatic PLA₂ (3.2 units) and the test compound. The reaction was run at 37°C in a shaking incubator. The reaction was quenched and an internal standard was added in order to determine sample recovery. […] See Feyen, J.H.M., et al., Journal of Chromatography 259 (1983), pp. 338-340.

[4] = system: naja naja (snake venom) phospholipase A₂-induced paw edema; assay: Phospholipase A₂-induced Paw Edema (PIPE); format: in vivo, male Wistar rats; conditions: for PIPE* (0.1 M): difference in edema vs. control, 0.1 M test compound injected with PLA₂ (3 units/paw), subplantar, rat hindpaw, two hours post administration
Protocol: The ability of compounds to prevent naja naja (snake venom) phospholipase A₂-induced paw edema in male Wistar rats (100-125 g) was measured. PLA₂ (3 units/paw) alone or with 0.1 M of the test compound was injected in the subplantar region of the rat left hindpaw. Immediately subsequent to the injection and at two hours post administration the paw was immersed in a mercury bath, and paw displacement was measured on a recorder via a transducer (Standard: hydrocortisone ED₅₀=0.46 M). See Giessler, A.J. et al., Agents and Actions, Vol. 10, Trends in Inflammation Research (1981), p. 195.

[5] = system: ear edema induced by topical application of TPA (phorbol 12-myristate acetate); assay: TPA-Induced Ear Edema (TPAEE); format: in vivo, Female Swiss Webster mice; conditions: for TPAEE (10 µg): 10 µg/ear topical, TPA 10µg/ear, ear punch weight after five hours
Protocol: The purpose of this assay was to determine the ability of a topically-applied compound to prevent ear edema induced by topical application of TPA (phorbol 12-myristate acetate). Female Swiss Webster mice topically received TPA (10µg/ear) on the right ear and vehicle on the left ear. The test compound (10 µg/ear) was applied to both ears. After five hours, the animals were sacrificed and an ear punch (4 mm) was taken from each ear. The difference in right and left ear punch weights for each animal was determined to assess activity (Standard: hydrocortisone ED₅₀=47 µg/ear). See Young, J.M. et al., J. Invest. Dermatol., 80 (1983), pp. 48-52.

[6] = system: mouse ear edema induced by topical application of arachidonic acid; assay: Arachidonic Acid-Induced Ear Edema (AAEE); format: in vivo, Female Swiss Webster mice
Protocol: The purpose of this assay was to determine the ability of a topically-applied compound to prevent mouse ear edema induced by topical application of arachidonic acid. Female Swiss Webster mice topically received vehicle or test compound (1.0 mg/ear) on both ears (10µl on outer and inner ears). After 30 minutes, the right ear of all groups received arachidonic acid (4 mg/ear) and the left ear received vehicle alone. After an additional 1 hour, the mice were sacrificed and an ear punch (4 mm) was taken from each ear. The difference in right and left ear punch weights for each animal was determined to assess activity (Standard: indomethacin ED₅₀ = 1.5 mg/ear). See Young, J.M. et al., J. Invest. Dermatol., 80, (1983), pp 48-52.

[7] = Mus musculus, sc, 24 h, s.c, read-out: % of Animals with Scopolamine Induced Memory Deficit Reversal
[8] = 0.01 M test compound, porcine pancreatic PLA₂, 37°C, pH 8.0, change vs. control, read-out: PLA2* (0.01 M)

Compound: CCCCNCc1cnccc1N.Cl.Cl [3-(Butylamino)methyl-4-pyridinamine dihydrochloride]
- PQW (% inhibition of writhing) ([1]; Dose 20 mg/kg, s.c.): 62%
- responders at 0.3 mg/kg [2, 7]: 27%

Compound: Cl.Cl.Nc1ccncc1CNCc1ccccc1 [3-[(Phenylmethylamino)methyl]-4-pyridinamine dihydrochloride]
- inhibition at 10000 µM ([3]; pH 8, read-out: PLA2* (0.01 M)): 79%
- PQW (% inhibition of writhing) ([1]; Dose 20 mg/kg, s.c.): 40%
- PIPE* (0.1 M) [4]: -51%

Compound: CC(NCc1ccccc1)c1cnccc1N (stereo not drawn) [4-Amino-α-methyl-N-(phenylmethyl)-3-pyridinemethanamine]
- PIPE* (0.1 M) [4]: -44%

Compound: Nc1ccncc1C(=NO)c1ccccc1F [(4-Amino-3-pyridinyl)-(2-fluorophenyl)-methanone oxime]
- inhibition at 10000 µM [3, 8]: 32%
- TPAEE (10 µg) [5]: -56%

Compound: Nc1ccncc1C(N)c1ccccc1 (stereo not drawn) [(4-Amino-3-pyridinyl)benzenemethanamine dihydrochloride]
- PIPE* (0.1 M) [4]: -66%
- responders at 0.3 mg/kg [2, 7]: 27%

Compound: Cl.Cl.Nc1ccncc1C(N)C1CCCCC1 (stereo not drawn) [(4-Amino-3-pyridinyl)cyclohexylmethanamine dihydrochloride]
- inhibition at 10000 µM ([3]; pH 8, read-out: PLA2* (0.01 M)): 72%
- PIPE* (0.1 M) [4]: -68%

Compound: Cl.Nc1ccncc1C(=O)C1CCCCC1 [(4-Amino-3-pyridinyl)cyclohexylmethanone hydrochloride]
- inhibition at 10000 µM ([3]; pH 8, read-out: PLA2* (0.01 M)): 82%
- TPAEE (10 µg) [5]: -53%

Compound: Nc1ccncc1C(=NO)C1CCCCC1 [(4-Amino-3-pyridinyl)cyclohexylmethanone oxime hydrochloride]
- inhibition at 10000 µM ([3]; pH 8, read-out: PLA2* (0.01 M)): 99%

Compound: CC(NCc1ccccc1)c1cnccc1NC(=O)C(C)(C)C (stereo not drawn) [N-[3-[1-(Phenylmethylamino)ethyl]-4-pyridinyl]-2,2-dimethylpropanamide dihydrochloride]
- inhibition at 10000 µM ([3]; pH 8, read-out: PLA2* (0.01 M)): 74%

Compound: CNC(=O)Oc1ccc2c(c1)[C@]1(C)CCN(C)[C@@H]1N2C [Physostigmine, reference compound]
- % of Animals with Scopolamine Induced Memory Deficit Reversal ([2]; mouse, in vivo, 0.31 mg/kg): 20%

Compound: CCC(=O)O[C@](Cc1ccccc1)(c1ccccc1)[C@H](C)CN(C)C [Propoxyphene, reference compound]
- PQW (% inhibition of writhing) ([1]; Dose 3.9 mg/kg, s.c. (reference compound)): 50%

Compound: C[C@]12CCC(=O)C=C1CC[C@@H]1[C@@H]2[C@@H](O)C[C@@]2(C)[C@H]1CC[C@]2(O)C(=O)CO [hydrocortisone, reference compound]
- ED₅₀ ([5]; standard of the TPAEE assay, topical): 47 µg/ear
- ED₅₀ ([4]; standard of the PIPE assay): 0.46 M

Compound: COc1ccc2c(c1)c(CC(=O)O)c(C)n2C(=O)c1ccc(Cl)cc1 [indomethacin, reference compound]
- ED₅₀ ([6]; standard of the AAEE assay, topical): 1.5 mg/ear

Compound: Nc1ccncc1C(O)c1ccccc1F (stereo not drawn) [α-(2-Fluorophenyl)-4-amino-3-pyridinylmethanol hydrochloride]
- PIPE* (0.1 M) [4]: -56%
- responders at 1 mg/kg ([2]; Mus musculus, sc, 24 h, Dose 1.0 mg/kg of body weight, s.c, read-out: % of Animals with Scopolamine Induced Memory Deficit Reversal): 40%

Compound: CC(C)(C)C(=O)Nc1ccncc1C(O)C1CCCCC1 (stereo not drawn) [α-Cyclohexyl-4-(2,2-dimethylpropionamido)-3-pyridinylmethanol]
- AAEE (1 mg) ([6]; 1.0 mg/ear topical, 30 minutes before arachidonic acid (4 mg/ear), ear punch weight after 1 hour): -52%
- TPAEE (10 µg) [5]: -55%
- responders at 0.16 mg/kg [2, 7]: 33%

Compound: Nc1ccncc1C(O)C1CCCCC1 (stereo not drawn) [α-Cyclohexyl-4-amino-3-pyridinylmethanol hydrochloride]
- responders at 0.16 mg/kg [2, 7]: 50%

Compound: CC(O)c1cnccc1NC(=O)C(C)(C)C (stereo not drawn) [α-Methyl-4-(2,2-dimethylpropionamido)-3-pyridinylmethanol]
- PQW (% inhibition of writhing) ([1]; Dose 20 mg/kg, s.c.): 89%

Compound: CC(O)c1cnccc1N (stereo not drawn) [α-Methyl-4-amino-3-pyridinylmethanol hydrochloride]
- responders at 1.25 mg/kg ([2]; Mus musculus, sc, 24 h, Dose 1.25 mg/kg of body weight, s.c, read-out: % of Animals with Scopolamine Induced Memory Deficit Reversal): 33%

Compound: CC(C)(C)C(=O)Nc1ccncc1C(O)c1ccccc1 (stereo not drawn) [α.Phenyl-4-(2,2-dimethylpropionamido)-3-pyridinylmethanol]
- PQW (% inhibition of writhing) ([1]; Dose 20 mg/kg, s.c.): 38%
- responders at 0.31 mg/kg ([2]; Mus musculus, sc, 24 h, Dose 0.31 mg/kg of body weight, s.c, read-out: % of Animals with Scopolamine Induced Memory Deficit Reversal): 40%

Compound: Nc1ccncc1C(O)c1ccccc1 (stereo not drawn) [α.Phenyl-4-amino-3-pyridinylmethanol hydrochloride]
- inhibition at 10000 µM [3, 8]: 87%
- responders at 0.63 mg/kg ([2]; Mus musculus, sc, 24 h, Dose 0.63 mg/kg of body weight, s.c, read-out: % of Animals with Scopolamine Induced Memory Deficit Reversal): 27%
